# Counter-ions that a name gives are not always drawn.
# Assay: Solubility assay (high throughput 96-well plate, pH 7.4 phosphate buffer)
# Format: physicochemical
# Settings: aqueous buffer, thermodynamic from solid, shaken two days at room temperature, UV-UPLC
# Protocol: Solubility measurements were performed using a high throughput 96-well plate based assay. For this, 0.2 mg of sample compound was weighed and added to a sample plate in triplicate and 650 μL of pH 7.4 phosphate buffer was added. The sample plate was capped, allowed to shake on a plate shaker for two days at room temperature, and then centrifuged (2000 rpm, 10 minutes) to settle undissolved solids. Approximately 600 μL of the aqueous supernatant slurry from each sample plate was transferred to a filter plate mounted on top of a receiver plate. Vacuum was applied to collect the filtrate. Appropriate dilutions were made in 50/50 methanol/water and quantification for concentration was performed against known standards by UV-UPLC. Some preferred compounds of the invention have greater solubility than the parent compound (P), N,N′-[(2S)-2-hydroxybicyclo[2.2.2]octane-1,4-diyl]bis[2-(4-chloro-3-fluorophenoxy)acetamide].
row,SMILES,solubility at 2 days [µM]
1,"CC(=O)O[C@H]1CC2(NC(=O)COc3ccc(Cl)c(F)c3)CCC1(NC(=O)COc1ccc(Cl)c(F)c1)CC2 (single isomer, unassigned) [Compound 100]",< 0.82
2,"N[C@@H](CC(=O)O[C@H]1CC2(NC(=O)COc3ccc(Cl)c(F)c3)CCC1(NC(=O)COc1ccc(Cl)c(F)c1)CC2)C(=O)O [Compound 102, (2S)-2-amino-4-({(2S)-1,4-bis[2-(4-chloro-3-fluorophenoxy)acetamido]bicyclo[2.2.2]octan-2-yl}oxy)-4-oxobutanoic acid]",59
3,O=C(COc1ccc(Cl)c(F)c1)NC12CCC(NC(=O)COc3ccc(Cl)c(F)c3)(CC1)[C@@H](OC(=O)Cc1ccccc1OP(=O)(O)O)C2 [Compound 115],936
4,"CN(C(=O)O[C@H]1CC2(NC(=O)COc3ccc(Cl)c(F)c3)CCC1(NC(=O)COc1ccc(Cl)c(F)c1)CC2)c1ncccc1COP(=O)(O)O [Compound 116, (2S)-1,4-bis[2-(4-chloro-3-fluorophenoxy)acetamido]bicyclo[2.2.2]octan-2-yl methyl{3-[(phosphonooxy)methyl]pyridin-2-yl}carbamate]",903
5,O=C(COc1ccc(Cl)c(F)c1)NC12CCC(NC(=O)COc3ccc(Cl)c(F)c3)(CC1)[C@@H](OC(=O)NCCOP(=O)(O)O)C2 [Compound 117],598
6,"O=C(COc1ccc(Cl)c(F)c1)NC12CCC(NC(=O)COc3ccc(Cl)c(F)c3)(CC1)[C@@H](OC(=O)CCCOP(=O)(O)O)C2 [Compound 120, (2S)-1,4-bis[2-(4-chloro-3-fluorophenoxy)acetamido]bicyclo[2.2.2]octan-2-yl 4-(phosphonooxy)butanoate]",812
7,"O=C(COc1ccc(Cl)c(F)c1)NC12CCC(NC(=O)COc3ccc(Cl)c(F)c3)(CC1)[C@@H](OC(=O)OCCOP(=O)(O)O)C2 [Compound 121, (2S)-1,4-bis[2-(4-chloro-3-fluorophenoxy)acetamido]bicyclo[2.2.2]octan-2-yl 2-(phosphonooxy)ethyl carbonate]",> 1000
8,"CC(C)(COP(=O)(O)O)CC(=O)O[C@H]1CC2(NC(=O)COc3ccc(Cl)c(F)c3)CCC1(NC(=O)COc1ccc(Cl)c(F)c1)CC2 [Compound 122, (2S)-1,4-bis[2-(4-chloro-3-fluorophenoxy)acetamido]bicyclo[2.2.2]octan-2-yl 3,3-dimethyl-4-(phosphonooxy)butanoate]",317
9,"O=C(COc1ccc(Cl)c(F)c1)NC12CCC(NC(=O)COc3ccc(Cl)c(F)c3)(CC1)[C@@H](OS(=O)(=O)O)C2 [Compound 125, (2S)-1,4-bis[2-(4-chloro-3-fluorophenoxy)acetamido]bicyclo[2.2.2]octan-2-yl hydrogen sulfate]",152
10,"O=C(COc1ccc(Cl)c(F)c1)NC12CCC(NC(=O)COc3ccc(Cl)c(F)c3)(CC1)[C@@H](OC(=O)CCCCOP(=O)(O)O)C2 [Compound 127, (2S)-1,4-bis[2-(4-chloro-3-fluorophenoxy)acetamido]bicyclo[2.2.2]octan-2-yl 5-(phosphonooxy)pentanoate]",645
11,"O=C(COc1ccc(Cl)c(F)c1)NC12CCC(NC(=O)COc3ccc(Cl)c(F)c3)(CC1)[C@@H](OCOP(=O)(O)O)C2 [Compound 131, ({(2S)-1,4-bis[2-(4-chloro-3-fluorophenoxy)acetamido]bicyclo[2.2.2]octan-2-yl}oxy)methyl dihydrogen phosphate]",> 1000

# Reference: patent US11149043B2 (Calico Life Sciences LLC, priority 2018, dated 2021)
